Test results reported in US5843941A, “Ras farnesyl transferase inhibitors” (Genentech, Inc., priority 1994, dated 1998).

Key:
[1] = test system: nuclear lamins A and B in Met18b-2 cells; assay: [3H]mevalonate labeling of farnesylated nuclear lamins in Met18b-2 cells; assay type: cell-based, Chinese hamster; conditions: 250 μM; FIG. 3
Description: To study farnesylation in intact cells we used Met18b-2 cells, a line of Chinese hamster ovary (CHO) cells that takes up [3H]mevalonate efficiently (see Faust, J., and Krieger, M. J. Biol. Chem. 262, 1966 (1987)) owing to the production of a mevalonate transport protein (see Kim, C. M., Goldstein, J. L., Brown, M. S. J. Biol. Chem. 267, 23113 (1992)). The [3H]mevalonate is converted by the cells into [3H]farnesyl pyrophosphate and [3H]geranylgeranyl pyrophosphate, which are then attached to proteins (Kim, C. M., Goldstein, J. L., Brown, M. S. J. Biol. Chem. 267, 23113 (1992)). In the assay, stock cultures of Met18b-2 cells were seeded at a density of 3-105 cells per 60 mm dish in 3 ml of medium A (Dulbecco's modified Eagle medium/Ham's F12 medium (1:1, v/v) containing 100 U/ml penicillin and 100 μg/ml streptomycin) supplemented with 5% (v/v) fetal calf serum (FCS). On day 3, each monolayer was refed with 1 ml medium A supplemented with 1% FCS (dialyzed against 0.15 M NaCl). At this point the cells were treated with 100 μM compactin (see Brown, M. S., Faust, J. R., Goldstein, J. L., Kaneko, I., and Endo, A. J. Biol. Chem. 253, 1121 (1978)) which blocks the synthesis of unlabeled mevalonate within the cells. […] Protein concentrations were determined using the BCA protein assay reagent (Pierce) according to the manufacturer's instructions. […]

CAAX GG transferase = biological target: T1, CAAX GG transferase (Rattus norvegicus, UniProt P53610+Q04631); assay: Inhibition of CAAX GG transferase (geranylgeranyltransferase); assay type: biochemical
T1 construct: partially purified CAAX GG transferase; from tissue
T1 sequence (P53610 whole entry, one chain of several): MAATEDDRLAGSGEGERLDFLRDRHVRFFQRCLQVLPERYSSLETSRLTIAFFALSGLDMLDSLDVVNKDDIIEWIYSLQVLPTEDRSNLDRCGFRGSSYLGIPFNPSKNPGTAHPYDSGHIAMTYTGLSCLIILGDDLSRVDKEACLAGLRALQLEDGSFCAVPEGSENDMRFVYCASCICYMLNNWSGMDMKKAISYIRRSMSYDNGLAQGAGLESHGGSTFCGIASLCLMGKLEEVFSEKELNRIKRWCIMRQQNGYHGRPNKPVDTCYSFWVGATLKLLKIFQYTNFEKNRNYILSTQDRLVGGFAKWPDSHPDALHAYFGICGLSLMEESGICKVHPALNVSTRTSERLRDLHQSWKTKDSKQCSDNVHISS
Description: FIG. 1 compares the inhibitory activity of compound 27B (denoted as BG269B in the figure) on protein prenyltransferases. […] Two other prenyltransferases, both of which transfer 20-carbon geranylgeranyl (GG) groups, have been identified in rat brain. One of thesse, CAAX GG transferase, attaches GG groups to proteins that terminate in CAAX sequences in which X is leucine.
The conditions used to assay the inhibition of CAAX farnesyltransferase are identical to those described above for the in vitro, assay described in Example 121. In FIG. 1B the assay mixture contained, in a final volume of 50 μl, 50 mM sodium Hepes (pH 7.2), 5 mM MgC12, 5 mM DTT, 0.3 mM Nonidet P-40, 0.2% octyl β-glucoside, 1% DMSO, 0.5 μM all trans [3H]geranylgeranyl pyrophosphate (33,000 dpm/pmol; ARC, Inc.), 5 μM recombinant p21^H-rasCVLL, 6.3 μg partially purified CAAX GG transferase (see Seabra, M. C., Reiss, Y., Casey, P. J., Brown, M. S., and Goldstein, J. L. Cell 268, 4055 (1993)) and varying concentrations of the indicated inhibitor. In FIG. 1C, the assay mixture contained in a final volume of 50 μl, 50 mM sodium Hepes (pH 7.2), 5 mM MgCl2, 5 mM DTT, 0.3 mM Nonidet P-40, 0.2% octyl β-D-glucoside, 1% DMSO, 0.5 μM all trans [3H]geranylgeranyl pyrophosphate (33,000 dpm/pmol; ARC, Inc.), 2 μM recombinant Rab1A, 2 ng each of purified Components A and B of Rab GG transferase (see Seabra, M. C., Goldstein, J. L., Sudhof, T. C., and Brown, M. S. J. Biol. Chem. 267, 14497 (1992)) and varying concentrations of the indicated inhibitor.
Each assay was carried out as described in Examples 121 and 122.

CSCC[C@H](NC(=O)CN1C(=O)C(N(C)C(=O)[C@@H](N)CS)N=C(c2ccccc2)c2ccccc21)C(=O)O (single isomer, unassigned) [27B]
labeling of farnesylated lamins (F-NL) [1]: reduced moderately the labeling of the farnesylated lamins | IC50 (CAAX GG transferase; FIG. 1B, p21H-rasCVLL substrate, read-out: IC0.5 CAAX GG transferase): 35 nM | fold higher concentration for CAAX GG transferase than for CAAX farnesyltransferase (CAAX GG transferase; selectivity vs CAAX farnesyltransferase): more than 100 fold
